Results on four compounds are retold here after US8304401B2, “Compositions and methods for decreasing type III deiodinase activity to modulate adiposity and blood glucose levels” (Trustees of Dartmouth College, priority 2008, dated 2012).

Assay [1] concerns the target T1, D1 (Homo sapiens, UniProt P49895).
T1 sequence (P49895 1-249): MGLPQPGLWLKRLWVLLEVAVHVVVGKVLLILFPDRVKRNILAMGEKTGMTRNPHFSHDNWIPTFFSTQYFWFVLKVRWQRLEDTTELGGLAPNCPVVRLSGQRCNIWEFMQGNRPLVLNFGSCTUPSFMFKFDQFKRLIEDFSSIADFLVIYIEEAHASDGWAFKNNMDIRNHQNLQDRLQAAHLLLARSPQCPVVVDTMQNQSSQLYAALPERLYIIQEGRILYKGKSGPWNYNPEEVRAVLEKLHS
Conditions: competitive inhibitor; read-out: Ki, D1-catalyzed rT3 deiodination; cited from earlier work.

Assay [2] addresses T2, D3 (Homo sapiens, UniProt P55073).
T2 sequence (P55073 1-304): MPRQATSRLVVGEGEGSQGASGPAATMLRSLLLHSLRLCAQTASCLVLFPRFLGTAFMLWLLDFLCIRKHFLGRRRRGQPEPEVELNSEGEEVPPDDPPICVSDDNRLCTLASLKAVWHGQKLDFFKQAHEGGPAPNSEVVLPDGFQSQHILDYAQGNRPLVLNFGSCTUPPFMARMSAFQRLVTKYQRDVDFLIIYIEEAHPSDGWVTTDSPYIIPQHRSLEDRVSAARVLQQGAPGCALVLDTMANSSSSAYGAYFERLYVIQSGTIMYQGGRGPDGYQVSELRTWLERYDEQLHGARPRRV
Conditions: read-out: Ki, D3-catalyzed T3 5 deiodination; competitive inhibitor; cited from earlier work.

For assay [3], the target named is T1, D1. Description: Inhibition of D1-catalyzed rT3 deiodination. In kind it is biochemical. The conditions noted are these: D1 much more sensitive to inhibition than D3. The text has this:
In addition to those specifically disclosed herein, additional D3 inhibitors can be identified by the generation of analogs or derivatives of known inhibitors, which can be used as lead compounds. […] Based upon such differences, lead compounds can be generated that have excellent specificity for specific deiodinases.

The subject of assay [4] is D3. Conditions: cited from earlier work.
The nature of assay [5]: Wild-type mice made hypothyroid with perchlorate, epididymal fat pad weight. In kind it is in vivo, mouse. The conditions noted are these: 0.04% perchlorate for two months, relative weight of epididymal fat pad, P<0.01. The text has this:
Analysis of relative weights (compared to total body weight) of male epididymal (EPI) and female parametrial white adipose tissue (WAT) indicated a significant reduction in adult D3KO mice (20% reduction in males and 35% in females, P<0.001, see FIG. 1). This reduction was more marked in aged D3KO mice (60%, P<0.001). […] These alterations were not due to the moderate hypothyroidism present in the D3KO mouse, as wild-type mice made hypothyroid with 0.04% perchlorate to a degree similar to that in D3KO mice manifested a 15% increase in EPI WAT weight (P<0.01, FIG. 3). Thus, the decreased adiposity of the D3KO mouse is both unexpected and even more striking in degree.

For the compound `OC[C@@H](O)[C@@H](O)[C@H](O)[C@@H](O)C=S.[Au]` [gold thioglucose], the results for the inhibition constant Ki in assay [1] and in assay [2] were 6 nM and 5.2 µM, respectively. In addition, the “difference in Ki between D1 and D3 inhibition” value in assay [3] is “approximately 1000 fold”. Regarding `O=C(O)CI` [iodoacetate], the D3 inhibitory activity entry in assay [4] is recorded as “exhibits D3 inhibitory activity”. As to `CCC(Cc1c(I)cc(I)c(N)c1I)C(=O)O` (stereo not drawn) [iopanoic acid], in assay [4], the D3 inhibitory activity entry is recorded as “effectively inhibit D3 activity”. For the compound `[O-][Cl+3]([O-])([O-])O` [perchlorate], the “increase in EPI WAT weight” value in assay [5] is on record as 15%.

By Ki is commonly meant the dissociation constant of the complex between target and ligand, obtained from inhibition or displacement.
